pIC50: −log10 of the molar value.
What follows are molecules tested against HIF-2α HIS TAG-PASB Domain (Homo sapiens, UniProt Q99814) (assay: biochemical). Details: not given.
Assay type: binding
From the text: The term “scintillation proximity assay” (SPA) refers to a homogenous assay in which light is emitted when a radiolabeled ligand is brought into close proximity to a radiosensitive bead. The assay typically contains a target protein that contains a tag (e.g., His Tag, Glutathione S-transferase Tag). The tag on the protein is used to bind the target protein to the scintillation bead. Radiolabeled ligand (e.g., labeled with tritium) that binds to the protein is now in close proximity to the bead, and when the raidolabel (e.g., tritium) decays, the high energy particle hits the bead resulting in the emission of light that is detected by a detector, such as photomultiplier tube or CCD camera. When unlabeled ligands or compounds that bind to the protein are used in the assay, they displace the radiolabeled ligand, resulting in loss of signal.
The total assay volume was about 100 μL in the following configuration: 2-μL compound in DMSO, 88 μL buffer with protein and probe and 10 μL of SPA beads. […] To each compound, 88 μL of the buffer solution was then added. […] The percent inhibition was determined and IC50 values were calculated using the Dotmatics system based on the following equation: % inhibition=[(high control−sample)/(high control−low control)]×100.

Chain of HIF-2α HIS TAG-PASB Domain (Q99814 whole entry, looked up, the tested form may be a part): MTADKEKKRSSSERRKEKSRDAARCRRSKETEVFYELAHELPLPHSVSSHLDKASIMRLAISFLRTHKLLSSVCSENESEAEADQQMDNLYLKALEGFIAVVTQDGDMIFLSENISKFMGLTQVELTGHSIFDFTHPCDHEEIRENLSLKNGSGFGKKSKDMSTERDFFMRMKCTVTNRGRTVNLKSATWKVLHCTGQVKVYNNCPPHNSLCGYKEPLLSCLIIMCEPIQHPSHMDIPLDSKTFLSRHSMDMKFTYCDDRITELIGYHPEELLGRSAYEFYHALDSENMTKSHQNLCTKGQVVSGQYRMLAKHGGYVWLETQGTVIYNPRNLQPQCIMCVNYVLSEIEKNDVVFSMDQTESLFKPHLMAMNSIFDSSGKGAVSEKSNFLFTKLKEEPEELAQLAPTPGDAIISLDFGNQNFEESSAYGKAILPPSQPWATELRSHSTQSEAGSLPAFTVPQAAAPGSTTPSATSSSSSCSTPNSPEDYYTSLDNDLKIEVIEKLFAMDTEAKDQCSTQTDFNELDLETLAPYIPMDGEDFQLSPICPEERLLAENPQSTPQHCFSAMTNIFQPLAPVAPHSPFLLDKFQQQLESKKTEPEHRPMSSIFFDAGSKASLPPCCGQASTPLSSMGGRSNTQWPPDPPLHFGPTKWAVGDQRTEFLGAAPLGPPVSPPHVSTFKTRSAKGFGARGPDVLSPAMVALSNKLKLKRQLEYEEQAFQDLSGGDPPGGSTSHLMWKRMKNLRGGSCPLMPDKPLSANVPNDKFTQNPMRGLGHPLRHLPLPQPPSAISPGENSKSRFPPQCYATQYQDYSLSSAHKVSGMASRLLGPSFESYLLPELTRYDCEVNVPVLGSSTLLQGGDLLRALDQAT

Row | SMILES | pIC50
1 | COc1cc(F)cc(Oc2ccc3c(c2C#N)[C@@H](O)C(F)(F)S3(=O)=O)c1 [Compound 81, (R)-2,2-difluoro-5-(3-fluoro-5-methoxyphenoxy)-3-hydroxy-2,3-dihydrobenzo[b]thiophene-4-carbonitrile 1,1-dioxide] | 7.17

Same assay, conditions: displacement of Compound 120 probe; mean; read-out: Mean SPA IC50

Row | pIC50 | SMILES
2 | 8.15 | N#Cc1cc(F)cc(Oc2ccc3c(c2Br)[C@@H](O)C(F)(F)S3(=O)=O)c1 [Compound 1, (R)-3-((4-bromo-2,2-difluoro-3-hydroxy-1,1-dioxido-2,3-dihydrobenzo[b]thiophen-5-yl)oxy)-5-fluorobenzonitrile]
3 | 7.33 | N#Cc1c(Oc2cc(F)cc(Cl)c2)ccc2c1[C@@H](O)CS2(=O)=O [Compound 2, (3R)-5-(3-Chloro-5-fluoro-phenoxy)-3-hydroxy-1,1-dioxo-2,3-dihydrobenzothiophene-4-carbonitrile]
4 | 5.36 | O=S1(=O)CCc2c1ccc(Oc1cc(F)cc(Cl)c1)c2Br [Compound 4, 4-Bromo-5-(3-chloro-5-fluorophenoxy)-2,3-dihydrobenzo[b]thiophene 1,1-dioxide]
5 | 5.85 | O=C1c2c(ccc(Oc3cc(F)cc(Cl)c3)c2Br)S(=O)(=O)C1(F)F [Compound 8, 4-Bromo-5-(3-chloro-5-fluorophenoxy)-2,2-difluorobenzo[b]thiophen-3(2H)-one 1,1-dioxide]
6 | 5.23 | N#Cc1cc(F)cc(Oc2ccc3c(c2C(F)F)C(=N)C(F)S3(=O)=O)c1 (stereo not shown) [Compound 27, 3-((4-(difluoromethyl)-2-fluoro-3-imino-1,1-dioxido-2,3-dihydrobenzo[b]thiophen-5-yl)oxy)-5-fluorobenzonitrile]

Continued, molecule first:

Row | SMILES | pIC50
7 | N#Cc1c(Oc2cc(F)cc(Cl)c2)ccc2c1CCS2(=O)=O [Compound 5, 5-(3-Chloro-5-fluorophenoxy)-2,3-dihydrobenzo[b]thiophene-4-carbonitrile 1,1-dioxide] | 5.31
8 | NC1c2c(ccc(Oc3cc(F)cc(F)c3)c2C(F)F)S(=O)(=O)C1F (stereo not shown) [Compound 20, 3-amino-4-(difluoromethyl)-5-(3,5-difluorophenoxy)-2-fluoro-2,3-dihydrobenzo[b]thiophene 1,1-dioxide] | 5.81
9 | NC1CS(=O)(=O)c2ccc(Oc3cc(F)cc(F)c3)c(C(F)F)c21 (stereo not shown) [Compound 21] | 4.93
10 | O=S1(=O)c2ccc(OC3CCOCC3)c(C(F)F)c2C(O)C1(F)F (stereo not shown) [Compound 54, 4-(Difluoromethyl)-2,2-difluoro-3-hydroxy-5-((tetrahydro-2H-pyran-4-yl)oxy)-2,3-dihydrobenzo[b]thiophene 1,1-dioxide] | 5.72
11 | N#CN=S1(=O)c2ccc(Oc3cc(F)cc(F)c3)c(Cl)c2[C@@H](O)C1(F)F (stereo partly drawn) [Compound 66, N-((3R)-4-Chloro-5-(3,5-difluorophenoxy)-2,2-difluoro-3-hydroxy-1-oxido-2,3-dihydro-1λ^4-benzo[b]thiophen-1-ylidene)cyanamide] | 6.77
12 | O=S1(=O)c2ccc(Oc3cncc(Cl)c3)c(Br)c2[C@@H](O)C1(F)F [Compound 75, (R)-4-bromo-5-((5-chloropyridin-3-yl)oxy)-2,2-difluoro-3-hydroxy-2,3-dihydrobenzo[b]thiophene 1,1-dioxide] | 6.92
13 | O=S1(=O)c2ccc(Oc3cncc(F)c3)c(Br)c2[C@@H](O)C1(F)F [Compound 77, (R)-4-bromo-2,2-difluoro-5-((5-fluoropyridin-3-yl)oxy)-3-hydroxy-2,3-dihydrobenzo[b]thiophene 1,1-dioxide] | 6.51
14 | Cc1cncc(Oc2ccc3c(c2Br)[C@@H](O)C(F)(F)S3(=O)=O)c1 [Compound 82, (R)-4-bromo-2,2-difluoro-3-hydroxy-5-((5-methylpyridin-3-yl)oxy)-2,3-dihydrobenzo[b]thiophene 1,1-dioxide] | 5.53
15 | O=S1(=O)c2ccc(Oc3cncc(Cl)c3)c(Cl)c2[C@@H](O)C1(F)F [Compound 86, (R)-4-Chloro-5-((5-chloropyridin-3-yl)oxy)-2,2-difluoro-3-hydroxy-2,3-dihydrobenzo[b]thiophene 1,1-dioxide] | 6.42

Same assay, conditions: unnumbered compounds listed by structure and name; read-out: IC50 value in SPA

Row | pIC50 | SMILES
16 | 4.00 to 4.60 | N#Cc1cc(F)cc(Oc2ccc3c(c2Cl)C(=O)C(F)(F)S3(=O)=O)c1 [3-(4-chloro-2,2-difluoro-1,1,3-trioxo-benzothiophen-5-yl)oxy-5-fluoro-benzonitrile]
17 | 4.00 to 4.60 | N#Cc1cccc(Oc2ccc3c(c2C(F)F)C(=O)C(F)(F)S3(=O)=O)c1 [3-[4-(difluoromethyl)-2,2-difluoro-1,1,3-trioxo-benzothiophen-5-yl]oxybenzonitrile]
18 | 4.00 to 4.60 | CO/C(=C/C(F)F)c1c(Oc2cc(F)cc(C#N)c2)ccc2c1C(O)C(F)(F)S2(=O)=O (stereo not shown) [3-[[4-[(E)-3,3-difluoro-1-methoxy-prop-1-enyl]-2,2-difluoro-3-hydroxy-1,1-dioxo-3H-benzothiophen-5-yl]oxy]-5-fluoro-benzonitrile]
19 | 4.00 to 4.60 | N#Cc1cc(F)cc(Oc2ccc3c(c2CF)C(O)CS3(=O)=O)c1 (stereo not shown) [3-fluoro-5-[[4-(fluoromethyl)-3-hydroxy-1,1-dioxo-2,3-dihydrobenzothiophen-5-yl]oxy]benzonitrile]
20 | < 4.00 | N=S1(=O)CC(=O)c2c1ccc(Oc1cc(F)cc(F)c1)c2Br (stereo not shown) [4-bromo-5-(3,5-difluorophenoxy)-1-imino-1-oxo-benzothiophen-3-one]
21 | 4.00 to 4.60 | N#Cc1c(Oc2cncc(Cl)c2)ccc2c1[C@@H](O)CS2(=O)=O [(3R)-5-[(5-chloro-3-pyridyl)oxy]-3-hydroxy-1,1-dioxo-2,3-dihydrobenzothiophene-4-carbonitrile]

Continued, molecule first:

Row | SMILES | pIC50
22 | N#Cc1cc(F)cc(Oc2ccc3c(c2C#CCO)C(O)C(F)(F)S3(=O)=O)c1 (stereo not shown) [3-[[2,2-difluoro-3-hydroxy-4-(3-hydroxyprop-1-ynyl)-1,1-dioxo-3H-benzothiophen-5-yl]oxy]-5-fluoro-benzonitrile] | < 4.00
23 | N#Cc1cc(F)cc(Oc2ccc3c(c2C(F)F)C(NCC(F)F)CS3(=O)=O)c1 (stereo not shown) [3-[[3-(2,2-difluoroethylamino)-4-(difluoromethyl)-1,1-dioxo-2,3-dihydrobenzothiophen-5-yl]oxy]-5-fluoro-benzonitrile] | < 4.00
24 | N#CCNC1CS(=O)(=O)c2ccc(Oc3cc(F)cc(C#N)c3)c(C(F)F)c21 (stereo not shown) [3-[[3-(cyanomethylamino)-4-(difluoromethyl)-1,1-dioxo-2,3-dihydrobenzothiophen-5-yl]oxy]-5-fluoro-benzonitrile] | < 4.00
25 | N#Cc1cc(F)cc(Oc2ccc3c(c2C(F)F)C(NCCC(=O)O)C(F)(F)S3(=O)=O)c1 (stereo not shown) [3-[[5-(3-cyano-5-fluoro-phenoxy)-4-(difluoromethyl)-2,2-difluoro-1,1-dioxo-3H-benzothiophen-3-yl]amino]propanoic acid] | < 4.00
26 | NC1c2c(ccc(OC3CCOCC3)c2C(F)F)S(=O)(=O)C1(F)F (stereo not shown) [4-(difluoromethyl)-2,2-difluoro-1,1-dioxo-5-tetrahydropyran-4-yloxy-3H-benzothiophen-3-amine] | 4.00 to 4.60
27 | O=C1CS(=O)(=O)c2ccc(Oc3ccc(F)c(F)c3)c(C(F)F)c21 [4-(difluoromethyl)-5-(3,4-difluorophenoxy)-1,1-dioxo-benzothiophen-3-one] | < 4.00
28 | O=C1c2c(ccc(Oc3ccc(F)c(F)c3)c2C(F)F)S(=O)(=O)C1(F)F [4-(difluoromethyl)-5-(3,4-difluorophenoxy)-2,2-difluoro-1,1-dioxo-benzothiophen-3-one] | < 4.00
29 | O=C1CS(=O)(=O)c2ccc(Oc3cc(F)cc(F)c3)c(Br)c21 [4-bromo-5-(3,5-difluorophenoxy)-1,1-dioxo-benzothiophen-3-one] | < 4.00
30 | O=S1(=O)c2ccc(Oc3cc(F)cc(Cl)c3)c(Br)c2C(O)C12CC2 (stereo not shown) [4-bromo-5-(3-chloro-5-fluoro-phenoxy)-1,1-dioxo-spiro[3H-benzothiophene-2,1′-cyclopropane]-3-ol] | 4.00 to 4.60
31 | N#Cc1c(Oc2cc(F)cc(F)c2)ccc2c1C(O)CS2(=N)=O (stereo not shown) [5-(3,5-difluorophenoxy)-3-hydroxy-1-imino-2,3-dihydro-1H-1λ^4-benzo[b]thiophene-4-carbonitrile 1-oxide] | < 4.00
32 | N#Cc1cc(Oc2ccc3c(c2C(F)F)C(=O)C(F)(F)S3(=O)=O)ccc1F [5-[4-(difluoromethyl)-2,2-difluoro-1,1,3-trioxo-benzothiophen-5-yl]oxy-2-fluoro-benzonitrile] | 4.00 to 4.60
33 | N#Cc1cncc(Oc2ccc3c(c2C#N)[C@@H](O)CS3(=O)=O)c1 [5-[[(3R)-4-cyano-3-hydroxy-1,1-dioxo-2,3-dihydrobenzothiophen-5-yl]oxy]pyridine-3-carbonitrile] | 4.00 to 4.60
34 | O=S1(=O)c2ccc(Oc3cc(F)cc(F)c3)c(Br)c2[C@@H](O)C1F (stereo partly drawn) [(3R)-4-bromo-5-(3,5-difluorophenoxy)-2-fluoro-1,1-dioxo-2,3-dihydrobenzothiophen-3-ol] | < 4.00
35 | O=S1(=O)C[C@H](O)c2c1ccc(Oc1cncc(Cl)c1)c2Br [(3R)-4-bromo-5-[(5-chloro-3-pyridyl]oxy]-1,1-dioxo-2,3-dihydrobenzothiophen-3-ol] | < 4.00
36 | O=S1(=O)C[C@H](O)c2c1ccc(Oc1cncc(F)c1)c2Br [(3R)-4-bromo-5-[(5-fluoro-3-pyridyl)oxy]-1,1-dioxo-2,3-dihydrobenzothiophen-3-ol] | < 4.00
37 | N#Cc1c(Oc2cncc(F)c2)ccc2c1[C@@H](O)CS2(=O)=O [(3R)-5-[(5-fluoro-3-pyridyl)oxy]-3-hydroxy-1,1-dioxo-2,3-dihydrobenzothiophene-4-carbonitrile] | 4.00 to 4.60

Reference: US9884843B2 (Peloton Therapeutics, Inc., priority 2013, dated 2018)
